Details of data set [1]: method as in PMID 11716702, PMID 15217940, PMID 19495753. The following applies: cited from earlier work.
The subject of data set [2] is HeLa human cervical carcinoma cell line. Description: MTT in vitro antitumor (antiproliferative) assay, HeLa. The data set is classed as cell-based. To be noted: MTT, 72 h incubation, read-out: IC50 HeLa. The procedure:
(§1) The in vitro antitumor activities were evaluated on human cancer cell lines SGC-7901 and HeLa by the MTT assay, using irinotecan as the reference compound.
(§2) The in vitro antitumor activity was evaluated on two human cancer cell lines with the MTT method. SGC-7901 is a human gastric adenocarcinoma cancer cell line and HeLa is a human cervical carcinoma cell line. Cells were provided by the Jilin Province Tumor Institute. Cells were maintained in IMDM medium supplemented with 10% fetal calf serum, 2 mM glutamine, 100 U/mL penicillin, and 100 μg/mL streptomycin, at 37 °C in a humidified atmosphere containing 5% CO2. The human cancer lines SGC-7901 and HELA at a concentration of […] were incubated in a 96-well microtiter plate (100 μL in every well) for 24 h (37 °C, 5%CO2). Then the cells were incubated continuously for 72 h following various concentrations of test drugs were added. The concentrations are 50 μM, 10 μM, 2 μM, 0.4 μM, 0.08 μM, 0.016 μM, 0.0032 μM, respectively. After the 100 μL 0.05% MTT solution was added to each well, the plate was incubated for a further 4 h before removal of medium, the media removed. Formazan crystals were dissolved with 100 μL DMSO, then the absorbance was detected at 490 nm.

The target of data set [3] is AChE from electric eel (Electrophorus electricus, UniProt O42275). Description: AChE inhibition assay (modified Ellman method). The data set is classed as biochemical. The following applies: electric eel AChE, phosphate buffer pH 7.3, 37 °C; read-out: AChE IC50. An excerpt:
Irinotecan has been reported to be a potent inhibiter of AChE, and inhibition of this enzyme causes acute cholinergic diarrhea. Unlike irinotecan, the compounds we assayed were only weak inhibitors of AChE. […] One possible explanation is that the active site of AChE is present at the bottom of a gorge that is lined with hydrophobic amino acid residues. The terminal dipiperidino moiety in CPT-11 that interacts with amino acid residues within AChE plays a major role in enzyme inhibition, which has been confirmed by X-ray crystallographic studies.
The AChE inhibition by all compounds was studied according to a modification of the method of Ellman et al.. The activity was assayed with AChE from electric eel in the presence or absence of the test compounds in phosphate buffer (pH7.3). After the incubation at 37 °C for 1 min, 0.38 mM 5,5-dithiobisnitrobenzoic acid and 0.56 mM ATCh were added to the buffer. The changes in absorbance were read at 412 nm, per 15 s intervals for 3 min by a spectrophotometer (UV-2500, Shimadzu Corp., Kyoto, Japan).
For orientation: In Ellman's method for cholinesterases, released thiocholine reacts with DTNB.

For data set [4], the system named is SGC-7901 human gastric adenocarcinoma cancer cell line. Description: MTT in vitro antitumor (antiproliferative) assay, SGC-7901. The following applies: Homo sapiens, SGC-7901; MTT, 72 h incubation; read-out: IC50 SGC-7901. The data set is classed as cell-based. The procedure: as §1, §2
The subject of data set [5] is human colon adenocarcinoma SW1116 xenografts. Kind of data set: Tumor growth inhibition in human colon adenocarcinoma SW1116 xenografts in nude mice. Format: in vivo. To be noted: 60 mg/kg; for Body Weight Change: once per day for 6 days, nude mice. The procedure: The antitumor activity of 5e, compared with CPT-11 and SN-38, was investigated in human colon adenocarcinoma SW1116 xenografts in nude mice. The model animals were divided into four experimental groups, eight animals per group. Tested compouds were each administered by injection in the tumor section once per day for contiguous 6 days. The injection doses of test compound 5e, CPT-11, and SN-38 were 60 mg/kg, respectively. Using the vehicle group as the control, we tested the inhibitory activities of these compounds for 6 days and measured the changes in body weight and tumor size every 2 days. […] No toxic death occurred after drug treatment, and the body weight losses induced by 5e, CPT-11, and SN-38 at the given dose were similar.
(A xenograft is tissue or cells of one species grown in another, often human tumour cells in immunodeficient mice.)

Chain of AChE from electric eel (O42275 24-633): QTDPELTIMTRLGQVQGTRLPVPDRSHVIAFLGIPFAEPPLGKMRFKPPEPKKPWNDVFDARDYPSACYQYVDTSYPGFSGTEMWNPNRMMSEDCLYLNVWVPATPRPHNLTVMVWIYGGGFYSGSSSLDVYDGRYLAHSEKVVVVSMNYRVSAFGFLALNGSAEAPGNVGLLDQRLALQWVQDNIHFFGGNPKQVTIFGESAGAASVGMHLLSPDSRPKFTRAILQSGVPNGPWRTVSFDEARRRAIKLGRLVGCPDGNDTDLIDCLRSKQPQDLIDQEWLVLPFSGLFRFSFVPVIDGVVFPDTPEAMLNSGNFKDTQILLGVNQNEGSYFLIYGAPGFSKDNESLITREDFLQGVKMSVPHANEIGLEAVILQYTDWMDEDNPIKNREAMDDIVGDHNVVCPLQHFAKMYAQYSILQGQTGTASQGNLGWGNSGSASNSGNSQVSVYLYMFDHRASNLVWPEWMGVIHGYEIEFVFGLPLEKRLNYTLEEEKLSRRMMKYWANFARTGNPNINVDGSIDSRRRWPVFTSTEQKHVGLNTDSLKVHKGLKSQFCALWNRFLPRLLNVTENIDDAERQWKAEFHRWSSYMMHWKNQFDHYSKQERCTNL

A word on the IC50: it is the midpoint of a concentration-inhibition curve. For `CCc1c2c(nc3ccc(OC(=O)N4CCC(N5CCCCC5)CC4)cc13)-c1cc3c(c(=O)n1C2)COC(=O)[C@]3(O)CC` [Irinotecan, 7-ethyl-10-[4-(1-piperidino)-1-piperidino]-carbonyloxycamptothecin], the “bioconversion efficiency from irinotecan to the active form SN-38” value in data set [1] was 4%–5%. The IC50 is 1320 ± 130 nM in data set [2], 200 nM in data set [3] and 7380 ± 1240 nM in data set [4]. Besides, in data set [5] (injection in the tumor section once per day for 6 days, SW1116 xenograft nude mice, x ± SD), the “Tumor Weight” value was 0.17 ± 0.04 g/10g. The “Inhibitory Rate” value in data set [5] (injection in the tumor section once per day for 6 days, day 6, vs vehicle) is on record as 51%. The “Body Weight Change” value in data set [5] was -3.10 g; in data set [5] (listed as CPT-11), “similar”.

Values taken from article PMC6270839, “Synthesis and Biological Evaluation of Novel 10-Substituted-7-ethyl-10-hydroxycamptothecin (SN-38) Prodrugs” (Molecules, 2014).
